# Literature values, collected in the CATMoS acute toxicity set (Mansouri et al. 2021).
# Values joined by “and” are separate entries in the source; they are usually repeats but may differ in a detail not shown here. Identical values can stand only once.
# Test: rat acute oral toxicity
# Settings: in vivo
row,Compound,LD50
1,CCN(CC)c1ccccc1,782 mg/kg
2,Cc1oncc1C(=O)Nc1ccc(C(F)(F)F)cc1,235 mg/kg
3,CCCCCCCCCCOS(=O)(=O)O,1950 mg/kg
4,O=C(Cc1ccccc1)OC1=C(OC(=O)Cc2ccccc2)C(=O)OC1=O,8000 mg/kg
5,COC(=O)/C=C(/CC(=O)OC)OP(=O)(OC)OC,31 mg/kg
6,CCNc1nc(NCC)nc(SC)n1,750 mg/kg
7,CCCCCC(C)NC (stereo not given),320 mg/kg
8,CCN(Cc1ccncc1)C(=O)C(CO)c1ccccc1 (stereo not given),865 mg/kg
9,CSCCC(OC(C)=O)C(=O)O (stereo not given),2340 mg/kg
10,CC(C)N(Sc1nc2ccccc2s1)C(C)C,5200 mg/kg
11,Cc1cc(C(=O)Nc2ccccc2)c(C)o1,64 mg/kg
12,C=C(C)C(=O)OC(=O)COC(C)C,9000 mg/kg
13,CCN(CC)CCNC(=O)c1cc(Br)c(N)cc1OC,545 mg/kg
14,CCCC(=O)OC(Cl)C(Cl)(Cl)Cl (stereo not given),1480 mg/kg
15,COc1cc(NC(=O)OCCCN2CCN(c3ccccc3)CC2)cc(OC)c1OC,900 mg/kg
16,COc1cc2c(cc1OC)C(c1ccc(N)cc1)=NN=C(C)C2,128 mg/kg
17,CCOP(=S)(OCC)SCS(=O)CC (stereo not given),2 mg/kg
18,O=C(O)CONC(=O)c1ccccc1,2500 mg/kg
19,CCCCCCC#COC(=O)OCC,2850 mg/kg
20,NC(N)=NCC1CCCCCCN1 (stereo not given),3550 mg/kg
21,N#CCC[P+](CCC#N)(CCC#N)CC[P+](CCC#N)(CCC#N)CCC#N,10000 mg/kg
22,CSCC(=NO)C(C)(C)C,813 mg/kg
23,CCC(C)(C)/N=C(\NC#N)Nc1cccnc1,14 mg/kg
24,Nc1ccc(F)cc1,417 mg/kg
25,CC(C)COP(=S)(S)OCC(C)C,3000 mg/kg

row,Compound,LD50
1,Cc1cnccc1N,446 mg/kg
2,CN1CCN(c2c(F)cc3c(=O)c(C(=O)O)cn4c3c2SCC4)CC1,501 mg/kg
3,CC(C(=O)O)c1ccc(-c2ccccc2F)cc1 (stereo not given),337 mg/kg
4,CC(Cc1ccccc1)NCCN1CON=C1c1ccccc1 (stereo not given),649 mg/kg
5,CSP(SC)SC,105 mg/kg
6,CCC(CO)NC(=O)C1C=C2c3cccc4[nH]cc(c34)CC2N(C)C1 (stereo not given),93 mg/kg
7,O=C(Nc1ccc([N+](=O)[O-])cc1)OCc1cccnc1,14 mg/kg
8,CC1CCC(=O)O1 (stereo not given),8800 mg/kg
9,CCCCS(=O)(=O)NC1CCCCC1,2820 mg/kg
10,CCOC(O)C(Cl)(Cl)Cl (stereo not given),880 mg/kg
11,O=C(CF)Nc1ccc(F)cc1,2 mg/kg
12,CCN(CC)S(=O)(=O)c1ccc(OP(=S)(OC)OC)cc1Cl,50 mg/kg
13,Cc1ccccc1OCC(O)CO (stereo not given),625 mg/kg
14,ClC(Cl)Cc1ccccc1,5500 mg/kg
15,CC1CC2OC2CC1COC(=O)CCCCC(=O)OCC1CC2OC2CC1C (stereo not given),4290 mg/kg
16,C=CCSC(=S)SC(Cl)(Cl)Cl,2180 mg/kg
17,CC1(C)NC(=O)N(c2ccc([N+](=O)[O-])c(C(F)(F)F)c2)C1=O,195 mg/kg
18,CC(=O)Nc1ccc(/N=N/c2c(S(=O)(=O)O)cc3cc(S(=O)(=O)O)cc(NC(C)=O)c3c2O)cc1,23200 mg/kg
19,O=S(=O)(SC(Cl)(Cl)Cl)C(Cl)Cl,3620 mg/kg
20,CN(C)CCCN(C)[C@H]1CC[C@H]2[C@@H]3CC=C4C[C@@H](O)CC[C@]4(C)[C@H]3CC[C@]12C,470 mg/kg
21,CC(=O)OCc1ccc(C(C)C)cc1,1450 mg/kg
22,COC(CNCc1ccccc1)c1cccc(C(F)(F)F)c1 (stereo not given),1720 mg/kg
23,Nc1n[nH]c2ccc(C(F)(F)F)cc12,90 mg/kg
24,Cc1cc(C(=O)NNCc2ccccc2)no1,280 mg/kg
25,COC(=O)Cc1ccccc1,2550 mg/kg

row,Compound,LD50
1,CCCCCCCCP(=O)(O)O,1890 mg/kg
2,Cc1ccccc1O,1860 mg/kg
3,C[C@H]1c2cccc(O)c2C(=O)C2=C(O)[C@]3(O)C(=O)C(C(N)=O)=C(O)[C@@H](N(C)C)[C@@H]3[C@@H](O)[C@@H]21,1700 mg/kg
4,CCCCCOC(=O)CCC,12200 mg/kg
5,C=C(C)Cn1c(N)cc(=O)n(C)c1=O,1560 mg/kg
6,C[C@H](N)[C@H](O)c1ccccc1,1540 mg/kg
7,COP(=O)(Oc1cc(Cl)c(Br)cc1Cl)c1ccccc1 (stereo not given),118 mg/kg
8,O=C(Cl)CCCCCCCCC(=O)Cl,400 mg/kg
9,COc1ccc(-c2nc3ccc(C4=NNC(=O)CC4C)cc3[nH]2)cc1 (stereo not given),950 mg/kg
10,CCc1cc(=O)c2ccccc2o1,1400 mg/kg
11,COc1cc(C#N)ccc1OP(=S)(OC)OC,2710 mg/kg
12,CCCCCCCCCCCCOCCO,6550 mg/kg
13,CCCC[P+](CCCC)(CCCC)Cc1ccc(Cl)cc1Cl,178 mg/kg
14,CC1(C)C(C(=O)OCc2coc(Cc3ccccc3)c2)C1(C)C,141 mg/kg
15,Nc1ccccc1SCc1ncon1,79.4 mg/kg and 63 mg/kg
16,NC(=S)NC(N)=S,5 mg/kg
17,Oc1ccc2ccccc2c1Cl,2310 mg/kg
18,O=CC(Cl)CCl (stereo not given),160 mg/kg
19,CCCN(CCC)C(=O)C(CCC(=O)NCCCOC(=O)Cc1c(C)n(C(=O)c2ccc(Cl)cc2)c2ccc(OC)cc12)NC(=O)c1ccccc1 (stereo not given),370 mg/kg
20,Cc1cccc(N2CCN(CCCCN3C(=O)CNC3=O)CC2)c1,383 mg/kg
21,Nc1nc2cc(F)ccc2o1,1000 mg/kg
22,O=C(O)CCCCC(=O)O,7900 mg/kg and 10000 mg/kg
23,CCCCC(CC)C(=O)OCCOCCOCCOCCOC(=O)C(CC)CCCC (stereo not given),18000 mg/kg
24,CCCCCCCCSCCO,8530 mg/kg
25,O=C1CSC(=S)N1,320 mg/kg
